Experimental data taken from ChEMBL document CHEMBL1201862, “PubChem BioAssay data set” (2004).
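The compound was tested at five concentrations on cells cultured in 96-well plates, with a 48-hour exposure period. GI50 = concentration required for 50% inhibition of growth.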 Active and inactive are the calls of the source. No stated cut-off is given here; in the data, active = GI50 up to about 1.1 µM and inactive = higher.

Legend:
Assay in all cases: NCI-60 cell line screen, 48 h
OVCAR-5 = system: OVCAR-5
SK-OV-3 = system: SK-OV-3
COLO 205 = system: COLO 205
OVCAR-3 = system: OVCAR-3
SNB-75 = system: SNB-75
Malme-3M = system: Malme-3M
CCRF-CEM = system: CCRF-CEM
NCI-H460 = system: NCI-H460
SK-MEL-2 = system: SK-MEL-2
UACC-257 = system: UACC-257
A549 = system: A549
OVCAR-8 = system: OVCAR-8
SN12C = system: SN12C
SK-MEL-28 = system: SK-MEL-28
K562 = system: K562
HCC 2998 = system: HCC 2998
CAKI-1 = system: CAKI-1
IGROV-1 = system: IGROV-1
HL-60 = system: HL-60
M14 = system: M14

Structure (SMILES) | GI50 (OVCAR-5) | GI50 (SK-OV-3) | GI50 (COLO 205) | GI50 (OVCAR-3) | GI50 (SNB-75) | GI50 (Malme-3M) | GI50 (CCRF-CEM) | GI50 (NCI-H460) | GI50 (SK-MEL-2) | GI50 (UACC-257) | GI50 (A549) | GI50 (OVCAR-8) | GI50 (SN12C) | GI50 (SK-MEL-28) | GI50 (K562) | GI50 (HCC 2998) | GI50 (CAKI-1) | GI50 (IGROV-1) | GI50 (HL-60) | GI50 (M14)
CCOC(=O)CC1(c2cccc3ccccc23)OC(=O)c2ccccc21 (stereo not drawn) | > 100 µM (inactive) | > 100 µM (inactive) | 30.4 µM (inactive) | 33.6 µM (inactive) | 14 µM (inactive) | 27.5 µM (inactive) | 43.1 µM (inactive) | 37.6 µM (inactive) | 32.1 µM (inactive) | 56.4 µM (inactive) | 41 µM (inactive) | 45.5 µM (inactive) | 43.1 µM (inactive) | 39.9 µM (inactive) | 37.9 µM (inactive) | 62.5 µM (inactive) | 57.7 µM (inactive) | > 100 µM (inactive) | 22.1 µM (inactive) | –
COn1oc(=O)c2ccccc21 | > 100 µM (inactive) | > 100 µM (inactive) | > 100 µM (inactive) | > 100 µM (inactive) | > 100 µM (inactive) | 91.2 µM (inactive) | > 100 µM (inactive) | > 100 µM (inactive) | > 100 µM (inactive) | > 100 µM (inactive) | > 100 µM (inactive) | > 100 µM (inactive) | > 100 µM (inactive) | > 100 µM (inactive) | > 100 µM (inactive) | > 100 µM (inactive) | > 100 µM (inactive) | > 100 µM (inactive) | > 100 µM (inactive) | > 100 µM (inactive)
CC(C)(C)c1ccc2c(c1)OP1(Oc3cccc4cccnc34)(O2)Oc2ccc(C(C)(C)C)cc2O1 | 4.17 µM (inactive) | 48.2 µM (inactive) | 2.85 µM (inactive) | 1.79 µM (inactive) | 15.7 µM (inactive) | 5.28 µM (inactive) | 0.701 µM (active) | 3.04 µM (inactive) | 7.85 µM (inactive) | 2.54 µM (inactive) | 5.58 µM (inactive) | 3.92 µM (inactive) | 12.8 µM (inactive) | 15.7 µM (inactive) | 2.43 µM (inactive) | 9.89 µM (inactive) | 12.2 µM (inactive) | 3.88 µM (inactive) | 1.76 µM (inactive) | –
